Source: patent publication US8815210B2, “Diagnostic composition comprising plasma cations having superior safety profile” (GE Healthcare AS, priority 2009, dated 2014)
“Also recorded” adds a separate entry of the source. Read-outs that look alike come from different tables or passages of the source.

Legend:
normal pigs = assay: Haemodynamic effects after LAD injection in normal pigs without balloon occlusion (Example 2b); type: in vivo, pig; conditions: 25 ml (0.4 ml/sec) into LAD, 9 injections in 3 pigs
Excerpt: FIG. 5 depicts the effect of Compound I (with and without added Ca) and Visipaque on LVSP 45 to 70 seconds from the start of injection to the LAD of normal pigs normalised to Ringer Lacate (LR) injection.
The haemodynamic effects of compositions of Compound I with and without added CaCl2 were compared to Visipaque and Iopamidol following selective administration to the LAD in normal pigs without balloon occlusion. The effects of each contrast media were normalised to any effects seen with an equivalent injection of Ringer Lactate solution, which acted as a volume and electrolyte—“ratio” control. There were a total of 12 pigs in this study, and each pig received a single CM injected 3 times at volumes of 10 ml (4 ml/sec), 20 ml (1 ml/sec) and 25 ml (0.4 ml/sec) (total of 9 CM injections in each pig). Each CM was either preceded or followed by a control injection of Ringer Lactate, and the order of each injection (volume) was randomised in each pig.

[1] = test system: human serum albumin (HSA); assay: Binding to human serum albumin, equilibrium dialysis; type: in vitro ADME; conditions: 25 hours, citrated human plasma
Description: The binding of Compound I to human serum albumin (HSA) was determined using an equilibrium dialysis method. The binding of Compound I to human serum albumin was determined to be very low, 3.1±1.3%, confirming the negligible interaction of the substance with endogenous proteins.
The binding of Compound I to human serum albumin (HSA) was determined using an equilibrium dialysis method. A stock solution of Compound I (5.0 mg/ml in phosphate buffered saline (PBS)) was mixed with citrate:human plasma in a ratio of 1:9. Equilibration was carried out in a Diachem Dianorm Dialyser against an aqueous phosphate buffered saline using a Diachem 10.17 MW cutoff 10000 membrane and was carried out for 25 hours. Analysis of the solutions was performed using an ICP-AES instrument. In addition, spiked PBS solutions were also equilibrated against citrated human plasma solutions to ensure that the equilibrium had been obtained. The binding of Compound I to human serum albumin was determined to be very low, 3.1±1.3%, confirming the negligible interaction of the substance with endogenous proteins. As a reference, the binding of iodixanol to HSA was determined to 0.4±0.9%.

[2] = Osmolality, vapour pressure osmometer; type: physicochemical; conditions: 320 mgI/ml
Description: The osmolality of Compound I was determined at four different concentrations, 204, 254, 310 and 324 mgI/ml. The osmolality of Compound I at 320 mgI/ml is 136 mOsm/kg.
The osmolality of Compound I was determined at four different concentrations, 204, 254, 310 and 324 mgI/ml. A Vapro 5520 vapour pressure osmometer from Vapro Inc. was used.
The osmolality of Compound I at 320 mgI/ml is lower than that of iodixanol, 136 mOsm/kg vs 210 mOsm/kg at 320 mgI/ml.

[3] = octanol/water; cited from earlier work
[4] = test system: CD25^+-depleted peripheral blood mononuclear cells; assay: In vitro T cell proliferation model; type: cell-based; conditions: 2 and 5 mg I/mL
Description: Generally, iodinated contrast media may cause late hypersensitivity reactions in susceptible patients from 1 hour to several days after exposure. These reactions are mainly non-serious skin eruptions such as macular, maculopapular and urticaria-like eruptions. Contrast media-induced delayed adverse reactions (DARs) such as skin eruptions appear to be caused by contrast media-reactive T cells that, upon recognizing the contrast media, proliferate and subsequently orchestrate an inflammatory reaction in the skin. The applicant has evaluated an in vitro T cell proliferation model designed to predict the relative frequency with which contrast media, such as Compound I, will cause late skin reactions in patients post-intravascular administration. Two contrast media, iodixanol and iohexol, with known rates of delayed skin reactions, and the new contrast medium, Compound I, was screened (2 and 5 mg I/mL) for in vitro T cell proliferation in CD25^+-depleted peripheral blood mononuclear cells from 100 donors representing world population HLA-DR frequencies. Positive T cell responses were evaluated according to published protocols and stimulation index values (positive response≧1.9). In vitro toxicity was tested by measuring cell viability of the first 10 donor samples incubated with test contrast media (5 mg I/mL). The results were that all major HLA-DR allotypes were represented with a frequency equivalent to the world population. No contrast media tested appeared to have a meaningful effect on cell viability. […] For iodixanol and iohexol, T cell proliferation responses for most donors occurred on days 7 and 8; statistical significance favored a reduced proliferation response to Compound I on day 8. In conclusions the model successfully established the relative frequency with which contrast media caused in vitro T cell activation. The results correlated with reported frequency of late skin reactions with two marketed contrast media and identified a lower frequency for Compound I.

[5] = Partition coefficient between octanol and water; type: physicochemical; conditions: n-octanol/water
Description: As a measure of the hydrophilicity of Compound I, the partition coefficient between octanol and water was determined. Water (5 ml) containing the test substance (0.3 mg/ml) was shaken with 15 ml n-octanol until equilibrium had been obtained. The aqueous phase was separated by centrifugation and analyzed by HPLC (HP1100 equipped with a Discovery C18 column, 100×2.1 mm) using UV detection at 244 nm and a flow of 0.3 ml/min. Isocratic HPLC conditions were used, 8% acetonitrile in water (v/v). The octanol phase (12.5 ml) was extracted with water (0.75 ml) until equilibrium had been obtained and the phases were separated by centrifugation. The aqueous phase was analyzed by HPLC using the conditions detailed above. Both octanol and water were pre-saturated with water and octanol, respectively, before the partition coefficient experiments. […] As a comparison, the corresponding logP of iodixanol was determined to −4.02. The reported literature value is −4.05. The increased hydrophilicity of Compound I compared to iodixanol is confirmed by its HPLC behavior.

Sca:SD rats = conditions: rat, in vivo
Description: Young adult male Sca:SD rats (Scanbur, Sweden), weighing 200±20 g, were injected intravenously at a rate of 1.2 ml/min with either Compound I (340 mgI/mL, 286 mosmol/kg), iodixanol (321 mgI/mL, 284 mosmol/kg), osmotic control mannitol (283 mosmol/kg), or saline (290 mosmol/kg), administered as 2 separate doses 4 hours apart. For the interim kill animals (day 2 post-treatment), Compound I and iodixanol were dosed at 8, 10 and 12.8 gI/kg, corresponding to total dose volumes of 23.7, 29.7 and 38.0 ml/kg, and 25, 31.3 and 40 ml/kg, respectively, whereas for mannitol and saline, the dose volume was 40 ml/kg. For the 7 day terminal kill animals, there were 4 dose groups; Compound I and iodixanol (12.8 gI/kg), and saline and mannitol (40 mL/kg). In all cases, each group included 8 animals.
The following evaluations were made during the study; clinical signs, body weights and blood for haematology and clinical chemistry on days 0, 2 and 7, and gross observations, organ weight and histomorphological examination of tissues from the animals killed by excess intravenous thiopental injection on days 2 or 7. The day of dosing was defined as Day 0. Clinical biochemistry parameters (Na, K, Cl, PO4, Ca, AST, ALT, ALP, cholesterol, creatinine, CK, GGT, TG (triglyceride), total bilirubin, total protein, urea, albumin, LDH and GLDH were measured on a Beckman Synchron CX5 at 37° C. Haematology parameters (WBC, differential WBC, RBC, WBC/RBC ratio, Hgb, PLT, HCT, MCH, MCHC, MCV, MPV and RDW) were analyzed with an Abbott Cell-Dyn 3500 CS automated haematology analyzer. Kidneys from saline control and the 12.8 gI/kg Compound I and iodixanol groups were immerse fixed in 10% neutral buffered formalin, processed into paraffin wax, sectioned at a nominal thickness of 5 μm, stained with haematoxylin and eosin and examined by light microscopy.
The data were analysed by parametric one-way ANOVA, followed by Dunnett's post procedure test, using the 2 days and 7 days saline groups for comparison with the 2 days and 7 days iodixanol and Compound I groups. The statistical analysis was applied on day −1 (baseline), day 2 and day 7.

| SMILES | induction of ventricular fibrillation (VF) (normal pigs) | binding to human serum albumin (HSA) [1] | osmolality [2] | logP, reported literature value [3] | days on which T cell proliferation responses occurred for most donors [4] | logP [5] | Glomerulus: Bowman's Space Proteinaceous Material, Right Kidney (Sca:SD rats; male, Sca:SD, 2 day) | duration of clinical signs (Sca:SD rats; male, Sca:SD, iv) | onset of clinical signs after the first administration (Sca:SD rats; male, Sca:SD, iv) | Glomerulus: Bowman's Space Proteinaceous Material, Right Kidney (Sca:SD rats) | adverse clinical signs (Sca:SD rats; iv) |
| --- | --- | --- | --- | --- | --- | --- | --- | --- | --- | --- | --- |
| C[C@H](O)C(=O)Nc1c(I)c(C(=O)NC(CO)CO)c(I)c(C(=O)NC(CO)CO)c1I [Iopamidol, reference compound] | VF was observed in each case; also recorded: induced VF on every occasion |  |  |  |  |  |  |  |  |  |  |
| CC(=O)N(CC(O)CN(C(C)=O)c1c(I)c(C(=O)NCC(O)CO)c(I)c(C(=O)NCC(O)CO)c1I)c1c(I)c(C(=O)NCC(O)CO)c(I)c(C(=O)NCC(O)CO)c1I (stereo not drawn) [iodixanol, reference compound] |  | 0.4±0.9% | 210 mOsm/kg | −4.05 | days 7 and 8 | -4.02 | P, P, P, 0 | 2 to 3 h | 10 to 20 min | P, P, P, P, | mild to moderate depression and uncoordinated movements and weakness/inactivity |
| CC(=O)N(CC(O)CO)c1c(I)c(C(=O)NCC(O)CO)c(I)c(C(=O)NCC(O)CO)c1I (stereo not drawn) [iohexol, reference compound] |  |  |  |  | days 7 and 8 |  |  |  |  |  |  |
